This note sets out measurements from patent publication US9663525B2, “Pyrazolopyrimidinyl inhibitors of ubiquitin-activating enzyme” (Millennium Pharmaceuticals, Inc., priority 2012, dated 2017).

The target of the assay is recombinant human UAE (Homo sapiens (Human), UniProt P22314). The assay is described as follows: Ubiquitin Activating Enzyme (UAE) HTRF assay, human UAE. (Time-resolved FRET reads energy transfer from a long-lived donor to a nearby acceptor.)
recombinant human UAE, sequence (P22314 whole entry): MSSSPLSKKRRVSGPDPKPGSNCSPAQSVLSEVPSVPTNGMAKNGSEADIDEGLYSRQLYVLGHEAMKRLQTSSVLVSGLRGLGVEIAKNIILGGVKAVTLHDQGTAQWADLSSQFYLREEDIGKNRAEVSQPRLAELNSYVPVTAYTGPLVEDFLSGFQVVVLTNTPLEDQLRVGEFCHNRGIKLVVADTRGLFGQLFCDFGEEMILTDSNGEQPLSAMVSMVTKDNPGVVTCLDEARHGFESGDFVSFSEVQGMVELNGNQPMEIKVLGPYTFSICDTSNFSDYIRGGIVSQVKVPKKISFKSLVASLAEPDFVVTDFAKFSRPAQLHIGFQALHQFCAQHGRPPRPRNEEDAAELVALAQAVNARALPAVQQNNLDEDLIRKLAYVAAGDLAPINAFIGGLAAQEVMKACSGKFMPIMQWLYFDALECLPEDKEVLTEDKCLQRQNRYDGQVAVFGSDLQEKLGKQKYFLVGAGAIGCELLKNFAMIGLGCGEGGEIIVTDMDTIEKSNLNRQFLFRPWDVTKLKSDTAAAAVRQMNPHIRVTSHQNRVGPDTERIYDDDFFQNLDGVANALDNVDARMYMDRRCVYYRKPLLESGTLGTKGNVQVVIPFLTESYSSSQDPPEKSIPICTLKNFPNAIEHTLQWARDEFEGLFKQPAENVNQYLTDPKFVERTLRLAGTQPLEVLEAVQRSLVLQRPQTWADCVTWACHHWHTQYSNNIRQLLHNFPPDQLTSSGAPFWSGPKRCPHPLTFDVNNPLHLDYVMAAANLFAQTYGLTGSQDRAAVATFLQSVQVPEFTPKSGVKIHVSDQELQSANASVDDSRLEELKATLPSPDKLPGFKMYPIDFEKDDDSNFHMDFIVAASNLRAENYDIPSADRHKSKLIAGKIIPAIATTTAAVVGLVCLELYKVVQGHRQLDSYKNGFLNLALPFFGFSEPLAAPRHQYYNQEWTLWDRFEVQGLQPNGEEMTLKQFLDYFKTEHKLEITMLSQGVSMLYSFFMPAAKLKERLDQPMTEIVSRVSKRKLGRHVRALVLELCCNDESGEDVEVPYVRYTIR

Experimental: After incubation for 120 minutes, quantification of the FRET is performed on the Pherostar (BMG).
For compounds whose values are marked with an asterisk (*), mouse UAE was used. For all other compounds, human UAE was used.

Regarding `NS(=O)(=O)OC[C@H]1C[C@@H](Nc2ccnc3cc(-c4cccc(C(F)(F)F)n4)nn23)[C@H](O)[C@@H]1O` (racemic) [Compound I-064, (rac)-((1R,2R,3S,4R)-2,3-dihydroxy-4-(2-(6-(trifluoromethyl)pyridin-2-yl)pyrazolo[1,5-a]pyrimidin-7-ylamino)cyclopentyl)methyl rel-sulfamate], the IC50 fell in the range of 10 to 100 nM. For the molecule `COc1ccc(C(F)(F)F)cc1-c1cc2nccc(N[C@@H]3C[C@H](COS(N)(=O)=O)[C@@H](O)[C@H]3O)n2n1` (racemic) [Compound I-065, (rac)-((1R,2R,3S,4R)-2,3-Dihydroxy-4-((2-(2-methoxy-5-(trifluoromethyl)phenyl)-pyrazolo[1,5-a]pyrimidin-7-yl)amino)cyclopentyl)methyl rel-sulfamate], the IC50 was less than 10 nM.

As for `COc1ccc(OC(F)(F)F)cc1-c1cc2nccc(N[C@@H]3C[C@H](COS(N)(=O)=O)[C@@H](O)[C@H]3O)n2n1` (racemic) [Compound I-066, (rac)-((1R,2R,3S,4R)-2,3-Dihydroxy-4-((2-(2-methoxy-5-(trifluoromethoxy)-phenyl)pyrazolo[1,5-a]pyrimidin-7-yl)amino)cyclopentyl)methyl rel-sulfamate], the IC50 is less than 10 nM. The value for `NS(=O)(=O)OC[C@H]1C[C@@H](Nc2ccnc3cc(-c4ccccc4Oc4ccccc4)nn23)[C@H](O)[C@@H]1O` (racemic) [Compound I-068, (rac)-((1R,2R,3S,4R)-2,3-dihydroxy-4-(2-(2-phenoxyphenyl)pyrazolo[1,5-a]pyrimidin-7-ylamino)cyclopentyl)methyl rel-sulfamate] was 10 to 100 nM; that for `NS(=O)(=O)OC[C@H]1C[C@@H](Nc2ccnc3cc(-c4cccc(Cc5ccccc5)c4)nn23)[C@H](O)[C@@H]1O` (racemic) [Compound I-069, (rac)-((1R,2R,3S,4R)-4-(2-(3-benzylpenyl)pyrazolo[1,5-a]pyrimidin-7-ylamino)-2,3-dihydroxycyclopentyl)methyl rel-sulfamate] was 10 to 100 nM. As to `COc1cc(F)ccc1-c1cc2nccc(N[C@@H]3C[C@H](COS(N)(=O)=O)[C@@H](O)[C@H]3O)n2n1` (racemic) [Compound I-070, (rac)-((1R,2R,3S,4R)-4-(2-(4-fluoro-2-methoxyphenyl)pyrazolo[1,5-a]pyrimidin-7-ylamino)-2,3-dihydroxycyclopentyl)methyl rel-sulfamate], the IC50 was less than 10 nM.

Consider `NS(=O)(=O)OC[C@H]1C[C@@H](Nc2ccnc3cc(-c4csc5ccc(Cl)cc45)nn23)[C@H](O)[C@@H]1O` (racemic) [Compound I-071, (rac)-((1R,2R,3S,4R)-4-(2-(5-chlorobenzo[b]thiophen-3-yl)pyrazolo[1,5-a]pyrimidin-7-ylamino)-2,3-dihydroxycyclopentyl)methyl rel-sulfamate], for which the IC50 was less than 10 nM.

Take `COc1ccccc1-c1cc2nccc(N[C@@H]3C[C@H](COS(N)(=O)=O)[C@@H](O)[C@H]3O)n2n1` (racemic) [Compound I-072, (rac)-((1R,2R,3S,4R)-2,3-dihydroxy-4-(2-(2-methoyphenyl)pyrazolo[1,5-a]pyrimidin-7-ylamino)cyclopentyl)methyl rel-sulfamate]: the IC50 is less than 10 nM.

Regarding `NS(=O)(=O)OC[C@H]1C[C@@H](Nc2ccnc3cc(-c4cccc(C(=O)c5ccccc5)c4)nn23)[C@H](O)[C@@H]1O` (racemic) [Compound I-073, (rac)-((1R,2R,3S,4R)-4-(2-(3-benzoylphenyl)pyrazolo[1,5-a]pyrimidin-7-ylamino)-2,3-dihydroxycyclopentyl)methyl rel-sulfamate], the IC50 lay within 10 to 100 nM. On to `NS(=O)(=O)OC[C@H]1C[C@@H](Nc2ccnc3cc(-c4ccc5[nH]ccc5c4)nn23)[C@H](O)[C@@H]1O` (racemic) [Compound I-074, (rac)-[(1R,2R,3S,4R)-2,3-dihydroxy-4-{[2-(1H-indol-5-yl)pyrazolo[1,5-a]pyrimidin-7-yl]amino}cyclopentyl]methyl rel-sulfamate], for which the IC50 was in the range of 10 to 100 nM.

In general, IC50 refers to the midpoint of a concentration-inhibition curve.
